From ChEMBL document CHEMBL5726927, “Heterocyclic derivatives as modulators of kinase activity” (2019)

Test: P70S6K Enzyme Assay: P70S6K inhibitor compounds were diluted and plated in 96 well plates. A reaction mixture including the following components was then added to the compound plate to initiate the enzyme reaction; P70S6K (3 nM, T412E mutant, Millipore) was mixed with 24 μM ATP in an assay buffer containing 100 mM Hepes (pH 7.5), 5 mM MgCl2, 1 mM DTT, 0.015% Brij and 1 μM of the substrate peptide FITC-AHA-AKRRRLSSLRA-OH (derived from the S6 ribosomal protein sequence, FITC=fluorescein isothiocyanate, AHA=6-aminohexanoic acid). The reaction was incubated for 90 min at 25° C., before the addition of 10 mM EDTA to stop the reaction. The proportion of substrate and product (phosphorylated) peptide was analysed on a Caliper Life Sciences Lab Chip 3000, using a pressure of −1.4 psi, and upstream and downstream voltages of −3000 and −700 respectively. Product peaks were resolved before substrate peaks on the resulting chromatograms.

IC50: > 1000 nM
SMILES: O=C1CNc2ncnc(N3CCN(C(CN4CCCC4)c4ccc(F)c(Cl)c4)CC3)c2N1 (stereo unspecified)
